# Assay results published in US20230310474A1, “CORONAVIRUS TREATMENT COMPOSITION AND METHOD” (Cleveland State University, priority 2022, published 2023).
# Key:
# Neu1 = biological target: T1, Neu1 (Homo sapiens, UniProt Q99519); assay: Neuraminidase (sialidase) activity assay with 4-MU-NANA in HEK293T cells transfected with Neu1; type: cell-based
# T1 construct: expressed in transfected cells; host or cells: HEK293T
# SARS-CoV-2 [1] = assay: SARS-CoV-2 high-throughput screen (HTS) cytopathic effect assay in Vero 76 cells; type: cell-based; details: MOI 0.1, 48 hours
# HCoV-OC43 [2] = assay: microbe, parasite or virus in culture; type: cell-based
# THP-1 cells [3] = assay: MTS cell viability assay in THP-1 cells; type: cell-based, human; details: all tested concentrations
# Procedure: FIGS. 3A-J illustrate that Neu5Ac2en-OAcOMe exerts anti-viral effects in human cell models. […] (upper) or 37° C. (lower). Intracellular viral RNA was analyzed by RT-qPCR. FIGS. 3B-D show HCoV-OC43 (MOI = 2) infected THP-1 cells were treated with a gradient concentration of Neu5Ac2en-OAcOMe for 72 hours. Intracellular viral RNA (FIG. 3B, upper), extracellular progeny virus yields (FIG. 3B, lower and FIG. 3C) and intracellular nucleocapsid (FIG. 3D) were analyzed by RT-qPCR, TCID50 assay and immunoblot, respectively. The inhibitory and cytotoxic curves (3C) were obtained using the data from the lower panel in FIG. 3B and cell viability measured by MTS assay. CellTiter 96® AQueous One Solution Cell Proliferation Assay (MTS) (Promega, G3582) was performed as instructed in the kit manual. […] Sialylation was detected with biotin-MAA and biotin-SNA lectins. […] Nucleocapsid in the cell lysates was measured by western blot. […] The levels of intracellular nucleocapsid were analyzed by immunofluorescence (48 hours post-infection). […] ND, not detected. […]
# (§1) To determine whether Neu5Ac2en-OAcOMe affects post-entry steps of the viral life cycle, THP-1 cells were infected with HCoV-OC43 for two hours and then treated the cells with Neu5Ac2en-OAcOMe. Intracellular viral RNA and viral titers were quantified in the cell culture supernatants 72 hours post-infection.
# THP-1 cells [4] = assay: Cytokine production in THP-1 cells (human cytokine bead array); type: cell-based
# Procedure: Mouse blood samples were obtained at indicated time points, and cytokines in the serum were determined using a mouse cytokine bead array designed for inflammatory cytokines (552364, BD Biosciences, San Jose, CA). Human cytokines in cell culture derived supernatants were determined using a human cytokine bead array designed for inflammatory cytokines (551811, BD Biosciences).
# as §1
# [5] = Intracellular conversion of membrane-permeable inhibitor; details: upon entering into the cells
# HCoV-OC43 [6] = assay: HCoV-OC43 binding and entry assay in pretreated THP-1 cells (4° C. or 37° C.); type: cell-based; details: THP-1 cells pretreated two hours; 4° C. one hour or 37° C. two hours post-infection
# Procedure: Whether Neu5Ac2en-OAcOMe acts on the virus binding and entry steps of the viral life cycle was evaluated. THP-1 cells were treated with Neu5Ac2en-OAcOMe for two hours and then infected the cells with HCoV-OC43 at 4° C. or 37° C. Cells incubated at 4° C. were collected one hour post-infection and cells incubated at 37° C. were collected two hours post-infection. Intracellular viral RNA was quantified by RT-qPCR.
# HCoV-OC43 [7] = assay: HCoV-OC43 replication in epithelial cell lines (HEK293T, HeLa, BSC-1); type: cell-based
# Procedure: Cells were fixed with 4% paraformaldehyde in phosphate buffered saline (PBS) at room temperature for 15 min and then permeabilized with 1% Triton X-100 in PBS at room temperature for 15 min. Immunofluorescence staining was performed. Images were acquired with an EVOS FL Auto Imaging System (Thermo Fisher Scientific).
# Next, it was tested whether the observed efficacy of Neu5Ac2en-OAcOMe was not restricted to THP-1 cells. The efficacy of Neu5Ac2en-OAcOMe was evaluated in three epithelial cell lines (HEK293T cells, HeLa cells and BSC-1 cells). […] Therefore, cytosolic sialidase inhibitors represent a potential treatment for coronavirus infections.
# SARS-CoV-2 [8] = type: in vivo, K18-hACE2 transgenic mice; details: K18-hACE2 mice, IP on days 0-4, 1 x 10^4 PFU
# HCoV-OC43 [9] = test system: HCoV-OC43
# human sialidases = details: cited from earlier work
# SARS-CoV-2 [10] = details: several clinical trials; cited from earlier work
# [11] = HEK293T cells with Neu1 expression vector, 30 min at room temperature
# [12] = HEK293T cells, HeLa cells and BSC-1 cells
compound,measurement,setting,value
"O=C(CO)N[C@H]1[C@H]([C@H](O)[C@H](O)CO)OC(C(=O)O)=C[C@@H]1O [Neu5Gc2en, reference compound]",cell surface sialidase activity,Neu1; [11],targets sialidase on cell surface
same,protection activity (cell viability post SARS-CoV-2 infection),SARS-CoV-2 [1],could not protect
same,antiviral activity against HCoV-OC43 (viral transcripts and viral titer),HCoV-OC43 [2],did not inhibit HCoV-OC43 replication
COC(=O)C1=CC(OC(C)=O)[C@@H](NC(C)=O)C([C@H](OC(C)=O)[C@@H](COC(C)=O)OC(C)=O)O1 (stereo partly drawn) [Neu5Ac2en-OAcOMe],toxicity in MTS assay,THP-1 cells [3],non-toxic at all tested concentrations
same,cytokine production,THP-1 cells [4],did not induce cytokine production
same,intracellular conversion,[5],readily converted to the corresponding Neu5Ac2en intracellularly
same,virus binding and entry steps (intracellular viral RNA),HCoV-OC43 [6],did not affect virus binding and entry steps
same,cell surface sialidase activity,Neu1; [11],did not affect
same,total sialidase activity (total cell lysate),Neu1; [11],significantly decreased
same,viral replication by immunofluorescence staining for HCoV-OC43-N protein,"HCoV-OC43 [7]; BSC-1 cells, MOI 0.1, 48 hours post-infection",effectively suppressed viral replication
same,N protein levels in epithelial cell lines,HCoV-OC43 [7]; [12],significantly decreased
same,viral replication in epithelial cell lines,HCoV-OC43 [7]; [12],inhibited viral replication in all three cell lines
same,SARS-CoV-2-induced mortality,SARS-CoV-2 [8],significant protection
same,body weight loss,SARS-CoV-2 [8],significant protection
same,protection activity (cell viability post SARS-CoV-2 infection),SARS-CoV-2 [1],showed the highest protection activities
same,N protein levels,HCoV-OC43 [2],significantly decreased
same,antiviral activity against HCoV-OC43 (viral transcripts and viral titer),HCoV-OC43 [2],showed the highest antiviral activities
same,sialylation of HCoV-OC43 N protein,HCoV-OC43 [2],increased sialylation
same,viral replication at the level of viral transcripts and viral titers,HCoV-OC43 [2],significantly decreased viral replication
same,IC50,"HCoV-OC43 [2]; Betacoronavirus 1, OC43, THP-1, read-out: IC50 of viral replication (viral titers in cell culture supernatants)",13.7 µM
same,body weight,"HCoV-OC43 [9]; after HCoV-OC43 infection, 20 mg/kg IP",significantly lower in vehicle-treated mice than in Neu5Ac2en-OAcOMe-treated mice
same,brain and lung tissue damage (H&E staining),HCoV-OC43 [9]; day 5 post-infection,improved
same,serum IL-6 level,HCoV-OC43 [9]; day 5 post-infection,substantial decrease
same,serum TNF-α level,HCoV-OC43 [9]; day 5 post-infection,substantial decrease
same,"HCoV-OC43 viral replication in the lungs, blood and brain","HCoV-OC43 [9]; day 5 post-infection, 20 mg/kg IP",suppression of HCoV-OC43 viral replication
same,toxic signs and symptoms,"HCoV-OC43 [9]; in vivo, all treatment period",No toxic signs and symptoms were observed
same,survival,"HCoV-OC43 [9]; seven-day-old C57BL/6 pups, 20 mg/kg IP, 10 days observation",50%
CC(=O)N[C@H]1[C@H]([C@H](O)[C@H](O)CO)OC(C(=O)O)=C[C@@H]1N=C(N)N [zanamivir],protection activity (cell viability post SARS-CoV-2 infection),SARS-CoV-2 [1],did not show inhibitory activity
same,effect on human sialidases,human sialidases,almost no effect
same,antiviral activity against HCoV-OC43 (viral transcripts and viral titer),HCoV-OC43 [2],did not show inhibitory activity
CCOC(=O)C1=C[C@@H](OC(CC)CC)[C@H](NC(C)=O)[C@@H](N)C1 [oseltamivir],sialidase activity in the cytoplasm,Neu1,only slightly decreased
same,efficacy in treating SARS-CoV-2 infection,SARS-CoV-2 [10],no positive outcomes were observed
same,protection activity (cell viability post SARS-CoV-2 infection),SARS-CoV-2 [1],did not show inhibitory activity
same,effect on human sialidases,human sialidases,almost no effect
same,antiviral activity against HCoV-OC43 (viral transcripts and viral titer),HCoV-OC43 [2],did not show inhibitory activity
"CC1(C)Cc2c(sc(NC(=S)NC(=O)c3ccccc3)c2C(=O)O)CO1 [CID-1067700, reference compound]",HCoV-OC43 release,HCoV-OC43 [2],moderately inhibited
